Reference: BindingDB's records for doi:10.1073/pnas.93.10.4661 (Amgen, 1996)

What was measured:
[1] = molecular target: Pro-neuropeptide Y (Homo sapiens, UniProt P01303)
[2] = molecular target: Pro-neuropeptide Y (Rattus norvegicus, UniProt P07808)

Ki [1] [nM]	Ki [2] [nM]	Compound
1.9	0.3	CC[C@H](C)[C@H](NC(=O)[C@H](Cc1ccc(O)cc1)NC(=O)[C@H](CCCNC(=N)N)NC(=O)[C@H](CCCNC(=N)N)NC(=O)[C@H](CC(C)C)NC(=O)[C@H](CC(=O)O)NC(=O)[C@H](C)NC(=O)[C@H](C)NC(=O)[C@H](Cc1ccc(O)cc1)NC(=O)[C@H](CCC(N)=O)NC(=O)[C@H](C)NC(=O)[C@H](CCSC)NC(=O)[C@H](CCC(N)=O)NC(=O)[C@H](CCC(=O)O)NC(=O)[C@@H]1CCCN1C(=O)[C@@H](NC(=O)[C@H](C)NC(=O)[C@H](CC(N)=O)NC(=O)[C@H](CC(=O)O)NC(=O)CNC(=O)[C@@H]1CCCN1C(=O)[C@H](Cc1ccc(O)cc1)NC(=O)[C@@H](NC(=O)[C@@H]1CCCN1C(=O)[C@H](CCC(=O)O)NC(=O)[C@H](CC(C)C)NC(=O)[C@@H]1CCCN1C(=O)[C@H](C)N)C(C)C)[C@@H](C)O)C(=O)N[C@@H](CC(N)=O)C(=O)N[C@@H](CCSC)C(=O)N[C@@H](CC(C)C)C(=O)N[C@H](C(=O)N[C@@H](CCCNC(=N)N)C(=O)N1CCC[C@H]1C(=O)N[C@@H](CCCNC(=N)N)C(=O)N[C@@H](Cc1ccc(O)cc1)C(N)=O)[C@@H](C)O [CAS_59763-91-6]
139	0.4	CC[C@H](C)[C@H](NC(=O)[C@H](Cc1ccc(O)cc1)NC(=O)[C@H](CCCNC(=N)N)NC(=O)[C@H](CCCNC(=N)N)NC(=O)[C@H](CC(C)C)NC(=O)[C@H](CCC(N)=O)NC(=O)[C@@H](NC(=O)[C@H](CCC(=O)O)NC(=O)[C@H](Cc1ccc(O)cc1)NC(=O)[C@H](CCC(N)=O)NC(=O)[C@H](C)NC(=O)[C@H](CCCNC(=N)N)NC(=O)[C@H](CCC(N)=O)NC(=O)[C@H](CCC(=O)O)NC(=O)[C@H](Cc1c[nH]cn1)NC(=O)[C@@H](NC(=O)[C@H](C)NC(=O)[C@H](Cc1ccc(O)cc1)NC(=O)[C@H](CC(=O)O)NC(=O)CNC(=O)[C@@H]1CCCN1C(=O)[C@H](Cc1ccc(O)cc1)NC(=O)[C@H](CCSC)NC(=O)[C@@H]1CCCN1C(=O)[C@H](CCC(=O)O)NC(=O)[C@H](CC(C)C)NC(=O)[C@@H]1CCCN1C(=O)[C@H](C)N)[C@@H](C)O)[C@@H](C)O)C(=O)N[C@@H](CC(N)=O)C(=O)N[C@H](C(=O)N[C@@H](CC(C)C)C(=O)N[C@H](C(=O)N[C@@H](CCCNC(=N)N)C(=O)N1CCC[C@H]1C(=O)N[C@@H](CCCNC(=N)N)C(=O)N[C@@H](Cc1ccc(O)cc1)C(N)=O)[C@@H](C)O)[C@@H](C)O [NSC_41735]
2.3	–	H-APLEPEYPGDNATPEQMAQYAAELRRYINMLTRPRY-NH2 [CAS_59763-91-6]
